{"source": "patent US20260070945A1", "about": "“MACROCYCLIC IMMUNOMODULATORS” (Bristol-Myers Squibb Company, priority 2022, published 2026)", "note": "Where a SMILES comes first, the peptide text is derived from it. Bridges are numbered along the chain shown (N, C = ends). [ ]: non-standard residue; d: D form. The star is where a group is joined. Phe(4-CONH2) = NC(=O)c1ccc(C[C@H](N)C(=O)O)cc1; Phe(4-COOH) = N[C@@H](Cc1ccc(C(=O)O)cc1)C(=O)O; Bip = N[C@@H](Cc1ccc(-c2ccccc2)cc1)C(=O)O; Phe(4-NH2) = Nc1ccc(C[C@H](N)C(=O)O)cc1; Phe(3-Me) = Cc1cccc(C[C@H](N)C(=O)O)c1; His(π-Me) = Cn1cncc1C[C@H](N)C(=O)O; Val(3-OH) = CC(C)(O)[C@H](N)C(=O)O; 3Pal = N[C@@H](Cc1cccnc1)C(=O)O; 4Pal = N[C@@H](Cc1ccncc1)C(=O)O; 2Thi = N[C@@H](Cc1cccs1)C(=O)O; Aad = N[C@@H](CCCC(=O)O)C(=O)O; Cha = N[C@@H](CC1CCCCC1)C(=O)O; Carboxymethyl = O=C(O)C*; NMeA = CN[C@@H](C)C(=O)O; Aun = NCCCCCCCCCCC(=O)O; Dab = NCC[C@H](N)C(=O)O", "data": [{"biological_target": "T1, PD-1/PD-L1 interaction (PE-labeled human PD-L1-Ig binding to Jurkat cell line over-expressing human PD-1) (Homo sapiens, UniProt Q15116)", "T1 construct": "expressed in transfected cells; host or cells: Jurkat", "T1 sequence (Q15116 25-288)": "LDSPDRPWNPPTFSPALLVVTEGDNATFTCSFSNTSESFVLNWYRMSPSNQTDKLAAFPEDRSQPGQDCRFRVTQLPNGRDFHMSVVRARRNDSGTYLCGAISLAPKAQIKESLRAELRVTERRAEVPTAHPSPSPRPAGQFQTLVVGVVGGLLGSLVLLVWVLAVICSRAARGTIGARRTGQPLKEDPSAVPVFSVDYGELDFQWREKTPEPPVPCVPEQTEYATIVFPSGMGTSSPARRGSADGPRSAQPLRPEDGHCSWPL", "experiment": "Jurkat-PD-1 Cell Binding High-Content Screening Assay (CBA)", "details": "Jurkat-hPD-1 cells, PE-labeled PD-L1-Ig 20 nM final; read-out: Jurkat HPD1 PDL1 IC50", "method_in_brief": "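Jurkat-hPD-1 cells (8×10^3/well) in DMEM with 10% fetal calf serum were preincubated with compound for 2 h at 37 °C. PE-labeled PD-L1-Ig was then added at 20 nM final for 1 h. Cells were fixed in paraformaldehyde with Hoechst 33342, washed and imaged by high-content imaging.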", "units": {"IC50": "nM"}, "values": [{"compound": "Cc1cccc(C[C@@H]2NC(=O)[C@H](CC(=O)O)NC(=O)[C@H](Cc3ccc(OCC(=O)O)cc3)NC(=O)[C@H](Cc3ccc(C(N)=O)cc3)NC(=O)CSC[C@@H](C(=O)N[C@@H](CCN)C(=O)NCCCCCCCCCCC(=O)O)NC(=O)[C@H](CO)NC(=O)[C@H](C(C)C)NC(=O)[C@H](CC3CCCCC3)NC(=O)[C@H](CCN)NC(=O)[C@@H](CC(C)C)NC(=O)[C@H](C)N(C)C(=O)[C@H](Cc3ccc(O)cc3)NC(=O)[C@H](Cc3ccc(-c4ccccc4)cc3)NC(=O)[C@H](Cc3ccc(OCC(=O)O)cc3)NC2=O)c1", "note": "[Example 1277] ({CH2CO}-[Phe(4-CONH2)]Y(Carboxymethyl)D[Phe(3-Me)]Y(Carboxymethyl)[Bip]Y[NMeA][dL][Dab][Cha]VSC[Dab][Aun]-OH; thioether N-14)", "IC50": 24.6}, {"compound": "Cc1cccc(C[C@@H]2NC(=O)[C@H](CC(=O)O)NC(=O)[C@H](Cc3ccc(OCC(=O)O)cc3)NC(=O)[C@H](Cc3cccnc3)NC(=O)CSC[C@@H](C(=O)N[C@@H](CCN)C(=O)NCCCCCCCCCCC(=O)O)NC(=O)[C@H](CO)NC(=O)[C@H](C(C)C)NC(=O)[C@H](CC3CCCCC3)NC(=O)[C@H](CCN)NC(=O)[C@@H](CC(C)C)NC(=O)[C@H](C)N(C)C(=O)[C@H](Cc3ccc(O)cc3)NC(=O)[C@H](Cc3ccc(-c4ccccc4)cc3)NC(=O)[C@H](Cc3ccc(OCC(=O)O)cc3)NC2=O)c1", "note": "[Example 1278] ({CH2CO}-[3Pal]Y(Carboxymethyl)D[Phe(3-Me)]Y(Carboxymethyl)[Bip]Y[NMeA][dL][Dab][Cha]VSC[Dab][Aun]-OH; thioether N-14)", "IC50": 33.4}, {"compound": "Cc1cccc(C[C@@H]2NC(=O)[C@H](CC(=O)O)NC(=O)[C@H](Cc3ccc(OCC(=O)O)cc3)NC(=O)[C@H](Cc3ccc(N)cc3)NC(=O)CSC[C@@H](C(=O)N[C@@H](CCN)C(=O)NCCCCCCCCCCC(=O)O)NC(=O)[C@H](CO)NC(=O)[C@H](C(C)C)NC(=O)[C@H](CC3CCCCC3)NC(=O)[C@H](CCN)NC(=O)[C@@H](CC(C)C)NC(=O)[C@H](C)N(C)C(=O)[C@H](Cc3ccc(O)cc3)NC(=O)[C@H](Cc3ccc(-c4ccccc4)cc3)NC(=O)[C@H](Cc3ccc(OCC(=O)O)cc3)NC2=O)c1", "note": "[Example 1279] ({CH2CO}-[Phe(4-NH2)]Y(Carboxymethyl)D[Phe(3-Me)]Y(Carboxymethyl)[Bip]Y[NMeA][dL][Dab][Cha]VSC[Dab][Aun]-OH; thioether N-14)", "IC50": 39.3}, {"compound": "Cc1cccc(C[C@@H]2NC(=O)[C@H](CC(=O)O)NC(=O)[C@H](Cc3ccc(OCC(=O)O)cc3)NC(=O)[C@H](CCCC(=O)O)NC(=O)CSC[C@@H](C(=O)N[C@@H](CCN)C(=O)NCCCCCCCCCCC(=O)O)NC(=O)[C@H](CO)NC(=O)[C@H](C(C)C)NC(=O)[C@H](CC3CCCCC3)NC(=O)[C@H](CCN)NC(=O)[C@@H](CC(C)C)NC(=O)[C@H](C)N(C)C(=O)[C@H](Cc3ccc(O)cc3)NC(=O)[C@H](Cc3ccc(-c4ccccc4)cc3)NC(=O)[C@H](Cc3ccc(OCC(=O)O)cc3)NC2=O)c1", "note": "[Example 1280] ({CH2CO}-[Aad]Y(Carboxymethyl)D[Phe(3-Me)]Y(Carboxymethyl)[Bip]Y[NMeA][dL][Dab][Cha]VSC[Dab][Aun]-OH; thioether N-14)", "IC50": 29.3}, {"compound": "Cc1cccc(C[C@@H]2NC(=O)[C@H](CC(=O)O)NC(=O)[C@H](Cc3ccc(OCC(=O)O)cc3)NC(=O)[C@H](Cc3cncn3C)NC(=O)CSC[C@@H](C(=O)N[C@@H](CCN)C(=O)NCCCCCCCCCCC(=O)O)NC(=O)[C@H](CO)NC(=O)[C@H](C(C)C)NC(=O)[C@H](CC3CCCCC3)NC(=O)[C@H](CCN)NC(=O)[C@@H](CC(C)C)NC(=O)[C@H](C)N(C)C(=O)[C@H](Cc3ccc(O)cc3)NC(=O)[C@H](Cc3ccc(-c4ccccc4)cc3)NC(=O)[C@H](Cc3ccc(OCC(=O)O)cc3)NC2=O)c1", "note": "[Example 1281] ({CH2CO}-[His(π-Me)]Y(Carboxymethyl)D[Phe(3-Me)]Y(Carboxymethyl)[Bip]Y[NMeA][dL][Dab][Cha]VSC[Dab][Aun]-OH; thioether N-14)", "IC50": 22.1}, {"compound": "Cc1cccc(C[C@@H]2NC(=O)[C@H](CC(=O)O)NC(=O)[C@H](Cc3ccc(C(=O)O)cc3)NC(=O)[C@H](Cc3ccncc3)NC(=O)CSC[C@@H](C(=O)N[C@@H](CCN)C(=O)NCCCCCCCCCCC(=O)O)NC(=O)[C@H](CO)NC(=O)[C@H](C(C)(C)O)NC(=O)[C@H](CC3CCCCC3)NC(=O)[C@H](CCN)NC(=O)[C@@H](CC(C)C)NC(=O)[C@H](C)N(C)C(=O)[C@H](Cc3ccc(OCC(=O)O)cc3)NC(=O)[C@H](Cc3ccc(-c4ccccc4)cc3)NC(=O)[C@H](Cc3ccc(OCC(=O)O)cc3)NC2=O)c1", "note": "[Example 1282] ({CH2CO}-[4Pal][Phe(4-COOH)]D[Phe(3-Me)]Y(Carboxymethyl)[Bip]Y(Carboxymethyl)[NMeA][dL][Dab][Cha][Val(3-OH)]SC[Dab][Aun]-OH; thioether N-14)", "IC50": 7.2}, {"compound": "Cc1cccc(C[C@@H]2NC(=O)[C@H](CC(=O)O)NC(=O)[C@H](Cc3ccc(C(=O)O)cc3)NC(=O)[C@H](Cc3cccnc3)NC(=O)CSC[C@@H](C(=O)N[C@@H](CCN)C(=O)NCCCCCCCCCCC(=O)O)NC(=O)[C@H](CO)NC(=O)[C@H](C(C)(C)O)NC(=O)[C@H](CC3CCCCC3)NC(=O)[C@H](CCN)NC(=O)[C@@H](CC(C)C)NC(=O)[C@H](C)N(C)C(=O)[C@H](Cc3ccc(OCC(=O)O)cc3)NC(=O)[C@H](Cc3ccc(-c4ccccc4)cc3)NC(=O)[C@H](Cc3ccc(OCC(=O)O)cc3)NC2=O)c1", "note": "[Example 1283] ({CH2CO}-[3Pal][Phe(4-COOH)]D[Phe(3-Me)]Y(Carboxymethyl)[Bip]Y(Carboxymethyl)[NMeA][dL][Dab][Cha][Val(3-OH)]SC[Dab][Aun]-OH; thioether N-14)", "IC50": 15.9}, {"compound": "Cc1cccc(C[C@@H]2NC(=O)[C@H](CC(=O)O)NC(=O)[C@H](Cc3ccc(C(=O)O)cc3)NC(=O)[C@H](Cc3cccs3)NC(=O)CSC[C@@H](C(=O)N[C@@H](CCN)C(=O)NCCCCCCCCCCC(=O)O)NC(=O)[C@H](CO)NC(=O)[C@H](C(C)(C)O)NC(=O)[C@H](CC3CCCCC3)NC(=O)[C@H](CCN)NC(=O)[C@@H](CC(C)C)NC(=O)[C@H](C)N(C)C(=O)[C@H](Cc3ccc(OCC(=O)O)cc3)NC(=O)[C@H](Cc3ccc(-c4ccccc4)cc3)NC(=O)[C@H](Cc3ccc(OCC(=O)O)cc3)NC2=O)c1", "note": "[Example 1284] ({CH2CO}-[2Thi][Phe(4-COOH)]D[Phe(3-Me)]Y(Carboxymethyl)[Bip]Y(Carboxymethyl)[NMeA][dL][Dab][Cha][Val(3-OH)]SC[Dab][Aun]-OH; thioether N-14)", "IC50": 16.9}, {"compound": "Cc1cccc(C[C@@H]2NC(=O)[C@H](CC(=O)O)NC(=O)[C@H](Cc3ccc(OCC(=O)O)cc3)NC(=O)[C@H](Cc3cccs3)NC(=O)CSC[C@@H](C(=O)N[C@@H](CCN)C(=O)NCCCCCCCCCCC(=O)O)NC(=O)[C@H](CO)NC(=O)[C@H](C(C)(C)O)NC(=O)[C@H](CC3CCCCC3)NC(=O)[C@H](CCN)NC(=O)[C@@H](CC(C)C)NC(=O)[C@H](C)N(C)C(=O)[C@H](Cc3ccc(OCC(=O)O)cc3)NC(=O)[C@H](Cc3ccc(-c4ccccc4)cc3)NC(=O)[C@H](Cc3ccc(OCC(=O)O)cc3)NC2=O)c1", "note": "[Example 1285] ({CH2CO}-[2Thi]Y(Carboxymethyl)D[Phe(3-Me)]Y(Carboxymethyl)[Bip]Y(Carboxymethyl)[NMeA][dL][Dab][Cha][Val(3-OH)]SC[Dab][Aun]-OH; thioether N-14)", "IC50": 29.2}]}]}
